Assay results as given in ChEMBL document CHEMBL1201862, “PubChem BioAssay data set” (2004).
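Grown in 96-well plates, cells were treated for 48 hours with each compound at five concentrations. Insufficient inhibition: endpoint recorded as highest concentration tested. At the GI50, growth is halved.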 The source made the active and inactive calls. Rule as the data show it: active = GI50 up to about 1.1 µM and inactive = higher.

Key:
Experiment in all cases: DTP human tumour cell line panel, 48 h
M19-MEL = test system: M19-MEL
HOP-18 = test system: HOP-18
DMS-273 = test system: DMS-273
SNB-78 = test system: SNB-78
RXF 631 = test system: RXF 631
DMS-114 = test system: DMS-114
DLD-1 = test system: DLD-1
KM-20L2 = test system: KM-20L2
XF498 = test system: XF498

Measured: GI50

CC[N+]1(C)CCC(O)(c2ccc(OC)cc2)C(C(=O)c2ccc(OC)cc2)C1 (stereo not drawn)
inactive: M19-MEL 20.5 µM | HOP-18 14.7 µM | DMS-273 19 µM | SNB-78 14.8 µM | RXF 631 18.5 µM | DMS-114 19.9 µM | DLD-1 2.88 µM | KM-20L2 21.9 µM | XF498 11 µM

CC(C)(C)OC(=O)NC(Cc1ccccc1)C(=S)N1CCCC1 (stereo not drawn)
inactive: M19-MEL > 100 µM | HOP-18 > 100 µM | DMS-273 > 79.3 µM | SNB-78 > 100 µM | RXF 631 > 100 µM | DMS-114 65.5 µM | DLD-1 62.4 µM | KM-20L2 > 100 µM | XF498 > 100 µM
